Consider one substance from patent publication US5747447A, “Stable polypeptide composition” (COR Therapeutics, priority 1995, dated 1998).

The target of experiment [1] is ADP-induced human platelet aggregation (Homo sapiens, UniProt P05106+P08514). Put plainly: standard aggregation inhibition assay (ADP-induced human platelet aggregation). The experiment is classed as cell-based. From the text:
2. Standard assays directly applied to platelet aggregation, such as those described by Gann, Z.-R., et al., J Biol Chem (1988) 263:19827-19832; Huang, T. F., et al., J Biol Chem (1987) 262:16157-16163; Biochemistry (1989) 28:661-666, cited above and incorporated herein by reference;

For experiment [2], the target named is vitronectin receptor (Homo sapiens, UniProt P05106+P06756). Put plainly: plate assay, inhibition of vitronectin binding to vitronectin receptor. Particulars: at concentrations up to 1 uM. From the text:
The PAI assay systems further include characterization of the PAI specificity by binding inhibition assays identical to that above but substituting other adhesive proteins for Fg and other receptors for GP IIb-IIIa. In particular, inhibition of the binding of vitronectin to the vitronectin receptor; fibronectin to the fibronectin receptor; fibronectin to GP IIb-IIIa and fibrinogen and/or vWF to GP IIb-IIIa can be assessed. The adhesive protein and receptors for these assays are available in the art.

Experiment [3] relates to M21 melanoma cells. Kind of experiment: M21 melanoma cell adhesion to vitronectin-coated plates. The experiment is classed as cell-based. The procedure: M21 melanoma cells were labelled with ^35 S-methionine, and then added to vitronectin-coated plates in the presence of the indicated concentrations of purified snake venom peptides. Cell attachment was measured by solubilizing the cells remaining after an incubation and wash, as previously describe.

Sequence of ADP-induced human platelet aggregation (P08514 32-1039): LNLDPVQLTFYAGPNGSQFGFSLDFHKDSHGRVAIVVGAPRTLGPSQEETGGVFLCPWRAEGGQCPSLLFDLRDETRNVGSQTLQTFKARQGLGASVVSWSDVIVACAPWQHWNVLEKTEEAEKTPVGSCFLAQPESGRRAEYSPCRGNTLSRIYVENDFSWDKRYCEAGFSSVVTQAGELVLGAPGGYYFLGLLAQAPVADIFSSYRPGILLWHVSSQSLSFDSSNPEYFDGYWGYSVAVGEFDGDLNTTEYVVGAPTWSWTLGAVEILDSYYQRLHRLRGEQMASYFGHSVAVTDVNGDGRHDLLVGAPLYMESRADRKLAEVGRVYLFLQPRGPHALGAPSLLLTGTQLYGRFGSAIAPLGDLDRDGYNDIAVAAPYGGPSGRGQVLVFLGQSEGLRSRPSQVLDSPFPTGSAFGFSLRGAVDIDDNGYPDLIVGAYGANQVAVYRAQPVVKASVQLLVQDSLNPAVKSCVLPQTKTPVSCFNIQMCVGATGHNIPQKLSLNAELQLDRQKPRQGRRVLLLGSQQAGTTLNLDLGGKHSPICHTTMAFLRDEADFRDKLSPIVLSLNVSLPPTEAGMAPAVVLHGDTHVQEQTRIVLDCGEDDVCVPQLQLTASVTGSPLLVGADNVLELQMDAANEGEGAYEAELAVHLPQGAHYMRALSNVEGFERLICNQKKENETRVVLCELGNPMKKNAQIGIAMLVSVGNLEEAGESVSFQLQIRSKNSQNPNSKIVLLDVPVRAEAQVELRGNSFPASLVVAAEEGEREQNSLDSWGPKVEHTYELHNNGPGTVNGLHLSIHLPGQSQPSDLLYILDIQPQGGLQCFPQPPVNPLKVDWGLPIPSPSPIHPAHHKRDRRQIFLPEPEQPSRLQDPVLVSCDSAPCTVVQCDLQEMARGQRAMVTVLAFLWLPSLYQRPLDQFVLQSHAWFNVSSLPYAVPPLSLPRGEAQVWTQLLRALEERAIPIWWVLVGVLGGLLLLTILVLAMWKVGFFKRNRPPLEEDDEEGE
Sequence of ADP-induced human platelet aggregation (P05106 27-788): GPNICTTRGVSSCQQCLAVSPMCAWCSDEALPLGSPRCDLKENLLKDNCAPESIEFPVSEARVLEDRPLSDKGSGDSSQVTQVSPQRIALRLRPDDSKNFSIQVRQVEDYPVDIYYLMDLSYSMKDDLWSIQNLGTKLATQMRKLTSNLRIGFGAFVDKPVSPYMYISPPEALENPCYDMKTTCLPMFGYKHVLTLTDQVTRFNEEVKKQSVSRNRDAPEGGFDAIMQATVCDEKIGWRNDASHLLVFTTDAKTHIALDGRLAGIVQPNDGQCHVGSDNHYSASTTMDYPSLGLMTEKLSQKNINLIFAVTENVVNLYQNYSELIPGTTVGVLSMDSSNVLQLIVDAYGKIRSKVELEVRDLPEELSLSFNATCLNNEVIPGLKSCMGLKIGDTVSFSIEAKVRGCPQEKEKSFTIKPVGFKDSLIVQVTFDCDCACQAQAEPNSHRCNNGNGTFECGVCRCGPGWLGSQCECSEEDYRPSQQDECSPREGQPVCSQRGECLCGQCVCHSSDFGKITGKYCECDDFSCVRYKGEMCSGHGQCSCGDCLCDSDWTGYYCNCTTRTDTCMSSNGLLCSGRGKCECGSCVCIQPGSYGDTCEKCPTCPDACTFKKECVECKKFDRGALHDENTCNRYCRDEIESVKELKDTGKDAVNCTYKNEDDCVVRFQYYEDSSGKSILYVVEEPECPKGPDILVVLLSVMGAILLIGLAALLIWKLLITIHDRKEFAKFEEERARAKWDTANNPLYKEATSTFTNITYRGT
Sequence of vitronectin receptor (P06756 31-889 limits assumed): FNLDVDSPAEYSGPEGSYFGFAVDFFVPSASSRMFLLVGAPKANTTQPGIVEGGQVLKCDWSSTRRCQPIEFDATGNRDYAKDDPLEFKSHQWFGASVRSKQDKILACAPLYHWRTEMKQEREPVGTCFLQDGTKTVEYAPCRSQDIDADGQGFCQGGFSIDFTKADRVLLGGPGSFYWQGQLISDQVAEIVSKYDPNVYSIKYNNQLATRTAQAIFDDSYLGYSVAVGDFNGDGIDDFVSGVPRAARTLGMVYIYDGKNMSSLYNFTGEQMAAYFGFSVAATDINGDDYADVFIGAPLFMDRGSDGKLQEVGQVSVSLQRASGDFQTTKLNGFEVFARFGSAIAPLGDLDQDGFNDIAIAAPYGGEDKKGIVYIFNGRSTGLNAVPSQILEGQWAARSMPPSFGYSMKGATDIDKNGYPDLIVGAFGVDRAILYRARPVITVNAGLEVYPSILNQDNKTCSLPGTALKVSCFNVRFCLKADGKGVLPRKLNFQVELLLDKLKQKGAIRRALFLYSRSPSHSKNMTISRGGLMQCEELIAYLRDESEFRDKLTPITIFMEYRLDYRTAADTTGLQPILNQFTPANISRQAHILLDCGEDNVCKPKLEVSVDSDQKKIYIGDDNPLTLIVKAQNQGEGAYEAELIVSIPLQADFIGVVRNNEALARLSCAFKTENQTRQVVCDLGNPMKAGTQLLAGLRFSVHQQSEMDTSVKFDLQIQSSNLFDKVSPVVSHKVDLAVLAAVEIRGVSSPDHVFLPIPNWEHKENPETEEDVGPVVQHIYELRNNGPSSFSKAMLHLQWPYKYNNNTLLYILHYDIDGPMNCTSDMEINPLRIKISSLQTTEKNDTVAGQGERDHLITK
Sequence of vitronectin receptor (P06756 891-1048 limits assumed): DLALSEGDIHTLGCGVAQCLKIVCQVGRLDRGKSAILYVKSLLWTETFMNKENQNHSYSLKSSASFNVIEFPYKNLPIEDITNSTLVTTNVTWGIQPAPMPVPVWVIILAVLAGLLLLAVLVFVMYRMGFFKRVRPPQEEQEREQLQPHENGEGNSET
Sequence of vitronectin receptor (P05106 27-788): as the sequence (P05106 27-788) above

Take “[E^28 L^41 C^64 ]barbourin (28-73) [Analog #1]”: the “platelet aggregation inhibition activity (in words)” value in experiment [1] is “potent inhibitors of platelet aggregation”. Besides, the “affinity for VnR (in words)” value in experiment [2] is “relative lack of affinity”. Moreover, the “M21 cell attachment to vitronectin (in words)” value in experiment [3] is on record as “Neither barbourin nor Peptide 1 (truncated barbourin) had a significant effect”.
